Measurements: PMC6127852 (Journal of Enzyme Inhibition and Medicinal Chemistry, 2018)
In brackets after ≈: the same amount, converted by molar mass. Where two headings read alike, the source gives them in different places.

Key:
E. faecium VRE = test: Broth microdilution MIC, VRE clinical strain; type: cell-based; conditions: Enterococcus faecium
In short: (§1)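 MICs were set by CLSI broth microdilution in cation (Ca2+, Mg2+)-adjusted Mueller–Hinton broth, in triplicate. Panel: S. aureus ATCC 25923, MRSA, MSSA, E. faecalis, VRE E. faecium, E. coli ATCC 25925, P. aeruginosa ATCC 27853, A. baumannii ATCC 19606 and ESBL K. pneumoniae ATCC 27736.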

E. faecalis ATCC 29212 = test: Broth microdilution MIC, E. faecalis ATCC 29212; type: cell-based; conditions: Enterococcus faecalis, ATCC29212; Table S2
In short: (§2)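 Cation (Ca2+/Mg2+)-adjusted Mueller–Hinton broth, standard CLSI broth microdilution. MIC determined per strain, tested in triplicate.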

S. aureus ATCC 25923 = test: Broth microdilution MIC, S. aureus ATCC 25923; type: cell-based; conditions: Staphylococcus aureus, ATCC25923; Table S2
In short: as §2

[1] = tested on: bloodstream form T. brucei (strain 221); test: Anti-trypanosomal screening, resazurin; type: cell-based; conditions: Trypanosoma brucei, mean of triplicate ± SEM
In short: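 Parasites grown in modified Iscove's medium with compound in triplicate; resazurin added at 48 h and plates read after a further 16 h.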

E. coli ATCC 25925 = test: Broth microdilution MIC, E. coli ATCC 25925; type: cell-based; conditions: Escherichia coli, ATCC25925; Table S2
In short: as §2

[2] = tested on: polyG-polyC (polyC-polyG) (RNA, polymer) G/C; test: UV-Vis titration, Scatchard; conditions: PBS, I = 0.05 M (Table 1 says I = 0.015 M), cations not specified, I = 0.015 M (Methods: 0.05 M)
[3] = tested on: polyA-polyU (RNA, polymer) A/U; test: UV-Vis titration, Scatchard; conditions: PBS
S. aureus MRSA = test: Broth microdilution MIC, MRSA clinical strain; type: cell-based; conditions: Staphylococcus aureus, antibiotic-resistant clinical strain
In short: as §1

A. baumannii ATCC 19606 = test: Broth microdilution MIC, A. baumannii ATCC 19606; type: cell-based; conditions: Acinetobacter baumannii, ATCC19606; Table S2
In short: as §2

S. aureus MSSA = test: Broth microdilution MIC, MSSA clinical strain; type: cell-based; conditions: Staphylococcus aureus
In short: as §1

polyA-polyU [4] = test: UV–Vis titration with polyA-polyU (Scatchard); type: binding; conditions: for Hypochromic effect H/%, polyA-polyU (from experimental data): footnote e: calculated from experimental data; for log Ks, polyA-polyU: binding constant, Scatchard
In short: (§3)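 Polynucleotides titrated into compound at 1.48 × 10^−5 mol dm^−3 in PBS (I = 0.05 mol dm^−3, pH 7.0), with UV–Vis spectra in 1 cm quartz cells; ctDNA sonicated and filtered, concentration as nucleobases. Ks and n from Scatchard analysis, in some cases only from data at r ≥ 0.1.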

[5] = tested on: Gram-positive and Gram-negative bacteria; test: Anti-microbial activity overall (all tested bacteria); type: cell-based; conditions: summary over tested strains; read-out: MIC, anti-microbial activities overall
Description: The compounds were evaluated for their in vitro anti-bacterial activity against Gram-positive bacteria: S. aureus (ATCC 25923), MRSA, methicillin-sensitive S. aureus (MSSA), E. faecalis, vancomycin-resistant E. faecium (VREF), and Gram-negative bacteria: E. coli (ATCC 25925), P. aeruginosa (ATCC 27853), A. baumannii (ATCC 19606) and ESBL-producing K. pneumoniae (ATCC 27736). Standard broth microdilution method as recommended in guidelines of Clinical and Laboratory Standards Institute[61] ^, [65] ^, [66] was applied and the minimum inhibitory concentration (MIC) of compounds was tested. In short, testing was performed in U-bottomed 96-well sterile plastic microdilution trays (Falcon 3077, Becton Dickinson Labware, Franklin Lakes, NJ) in cation (Ca^2+ and Mg^2+) adjusted Mueller–Hinton broth medium (Becton Dickinson and Co., Cockeysville, MD). All testings were performed in triplicate.

calf thymus ctDNA = test: UV–Vis titration with ctDNA (Scatchard); type: binding; conditions: for Hypochromic effect H/%, ctDNA (from experimental data): footnote e: calculated from experimental data
In short: as §3

polyC-polyG = test: UV–Vis titration with polyC-polyG (Scatchard); type: binding; conditions: PBS, pH 7; for log Ks, polyC-polyG: binding constant, Scatchard; for Hypochromic effect H/%, polyC-polyG: UV–Vis titration, calculated by Scatchard equation
In short: as §3

P. aeruginosa ATCC 27853 = test: Broth microdilution MIC, P. aeruginosa ATCC 27853; type: cell-based; conditions: Pseudomonas aeruginosa, ATCC27853; Table S2
In short: as §2

K. pneumonia ATCC 700803 = test: Broth microdilution MIC, K. pneumoniae ATCC 700803; type: cell-based; conditions: Klebsiella pneumoniae, ATCC700803; Table S2
In short: as §2

[6] = tested on: L6 cells (a rat myoblast line); test: Cytotoxicity against mammalian cells, resazurin; type: cell-based; conditions: L6, 144 h, 6 d incubation
Description: Cytotoxicity against mammalian cells was also assessed using microtitre plates. Briefly, L6 cells (a rat myoblast line) were seeded at 1 × 10^4 ml^−1 in 200 µl of growth medium containing different compound concentrations. The plates were then incubated for 6 d at 37 °C and 20 µl resazurin added to each well. After a further 8 h incubation, the fluorescence was determined using a Spectramax plate reader, as outlined above.

polyA-polyU [7] = test: Thermal melting (ΔTm) of polyA-polyU; type: binding; conditions: for ΔTm, polyA-polyU, r = 0.1: PBS, pH 7; for ΔTm, polyA-polyU, r = 0.3 / ΔTm, polyA-polyU, r = 0.5: first melting midpoint; for ΔTm, polyA-polyU, r = 0.3, second melting midpoint / ΔTm, polyA-polyU, r = 0.5, second melting midpoint: footnote c: biphasic melting curve
In short: (§4)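 UV melting monitored at 260 nm in 1 cm cuvettes, ligand absorbance subtracted and normalised; ΔTm = Tm(complex) − Tm(free nucleic acid), mean of at least two runs, error ±0.5 °C. Compound tested at r = 0.1, 0.3, 0.5 and 0.7 eq ([compound]/[polynucleotide]) with ctDNA and polyA-polyU.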

ctDNA = test: Thermal melting (ΔTm) of ctDNA; type: binding, calf; conditions: PBS, pH 7
In short: as §4

[8] = tested on: polyA-polyU (RNA, polymer) A/U; test: UV melting at 260 nm; conditions: PBS, I = 0.05 M, cations not specified, pH 7, r = 0.3 [compound]/[polynucleotide], error ±0.5, biphasic, second midpoint 6.38, per base
[9] = tested on: bloodstream form T. brucei (strain 221); conditions: read-out: T. brucei IC50 (reference drug), ref [83]; cited from earlier work
[10] = UV–Vis titration, PBS, pH 7, calculated by Scatchard equation

Compound: c1ccc(-n2cc(COc3ccc(-c4nc5cc(C6=NCCN6)ccc5[nH]4)cc3)nn2)cc1 [Compound 9a]
- MIC (E. faecium VRE): 128 µg/mL (≈ 294 µM)
- MIC (E. faecalis ATCC 29212): 128 µg/mL (≈ 294 µM)
- MIC (S. aureus ATCC 25923): 128 µg/mL (≈ 294 µM)
- IC50 [1]: 7.9 ± 0.4 µM
- IC90 [1]: 17.2 ± 1.2 µM
- MIC (E. coli ATCC 25925): 256 µg/mL (≈ 588 µM)
- log Ks ([2]; pH 7, n fixed, per base): 6.21
- binding ([3]; pH 7, changes too small for accurate calculation, compound 14.8 µM): weak
- MIC (S. aureus MRSA): 128 µg/mL (≈ 294 µM)
- MIC (A. baumannii ATCC 19606): > 256 µg/mL
- MIC (S. aureus MSSA): 128 µg/mL (≈ 294 µM)
- Hypochromic effect H/%, polyA-polyU (from experimental data) (polyA-polyU [4]): 32.7 ^e %
- MIC [5]: ≥ 128 µg/mL
- Hypochromic effect H/%, ctDNA (from experimental data) (calf thymus ctDNA; UV–Vis titration, PBS, pH 7): 25.7 ^e %
- log Ks, polyC-polyG (polyC-polyG): 6.21
- MIC (P. aeruginosa ATCC 27853): > 256 µg/mL
- MIC (K. pneumonia ATCC 700803): > 256 µg/mL

Compound: COc1ccc(-n2cc(COc3ccc(-c4nc5cc(C(=N)NC(C)C)ccc5[nH]4)cc3)nn2)cc1.Cl.Cl [Compound 8b, N-isopropyl-2–(4-((1–(4-methoxyphenyl)-1H-1,2,3-triazol-4-yl)methoxy)phenyl)-1H-benz[d]imidazole-5-carboximidamide dihydrochloride]
- MIC (E. faecium VRE): 128 µg/mL
- MIC (E. faecalis ATCC 29212): 64 µg/mL
- MIC (S. aureus ATCC 25923): 128 µg/mL
- IC50 [1]: 1.1 ± 0.3 µM
- IC90 [1]: 3.5 ± 0.2 µM
- IC50 [6]: > 300 µM
- melting point: 188 to 191 °C
- MIC (E. coli ATCC 25925): 256 µg/mL
- log Ks ([2]; pH 7, per base): 6.39
- ΔTm, polyA-polyU, r = 0.1 (polyA-polyU [7]): 1.17 °C
- ΔTm, polyA-polyU, r = 0.3 (polyA-polyU [7]): 1.32 °C
- ΔTm, polyA-polyU, r = 0.3, second melting midpoint (polyA-polyU [7]): 6.38^c °C
- ΔTm, polyA-polyU, r = 0.5 (polyA-polyU [7]): 1.56 °C
- ΔTm, polyA-polyU, r = 0.5, second melting midpoint (polyA-polyU [7]): 8.49^c °C
- log Ks ([3]; I = 0.05 M (Table 1 says I = 0.015 M), cations not specified, I = 0.015 M (Methods: 0.05 M), pH 7, per base): 5.27
- ΔTm, ctDNA, r = 0.5 (ctDNA; r = 0.5): 3.96 °C
- ΔTm, ctDNA, r = 0.7 (ctDNA; r = 0.7): 4.47 °C
- ΔTm, ctDNA, r = 0.3 (ctDNA; r = [compound]/[polynucleotide] 0.3, error ±0.5 °C): 4.03 °C
- MIC (S. aureus MRSA): 16 µg/mL
- MIC (A. baumannii ATCC 19606): > 256 µg/mL
- MIC (S. aureus MSSA): 64 µg/mL
- Hypochromic effect H/%, polyA-polyU (polyA-polyU [4]; [10]): 57.8%
- log Ks, polyA-polyU (polyA-polyU [4]; PBS, pH 7): 5.27
- Hypochromic effect H/%, ctDNA (calf thymus ctDNA; [10]): 29.7%
- log Ks, ctDNA (range r ≥ 0.1) (calf thymus ctDNA; footnote f: mixed binding mode, calculated in range r ≥ 0.1): 6.06
- Hypochromic effect H/%, polyC-polyG (polyC-polyG): 5.05%
- log Ks, polyC-polyG (polyC-polyG): 6.39
- ΔTm [8]: 1.32 °C
- MIC (P. aeruginosa ATCC 27853): > 256 µg/mL
- MIC (K. pneumonia ATCC 700803): > 256 µg/mL

Compound: COc1ccc(-n2cc(COc3ccc(-c4nc5cc(C(=N)N)ccc5[nH]4)cc3)nn2)cc1.Cl.Cl [Compound 7b, 2–(4-((1–(4-Methoxyphenyl)-1H-1,2,3-triazol-4-yl)methoxy)phenyl)-1H-benz[d]imidazole-5-carboximidamide dihydrochloride]
- MIC (E. faecium VRE): 256 µg/mL
- MIC (E. faecalis ATCC 29212): 128 µg/mL
- MIC (S. aureus ATCC 25923): > 256 µg/mL
- IC50 [1]: 1.5 ± 0.3 µM
- IC90 [1]: 8.1 ± 0.6 µM
- IC50 [6]: 302 ± 15 µM
- melting point: 195 to 197 °C
- MIC (E. coli ATCC 25925): > 256 µg/mL
- MIC (A. baumannii ATCC 19606): > 256 µg/mL
- Hypochromic effect H/%, polyA-polyU (from experimental data) (polyA-polyU [4]): 27.9 ^e %
- MIC [5]: ≥ 128 µg/mL
- Hypochromic effect H/%, ctDNA (from experimental data) (calf thymus ctDNA; UV–Vis titration, PBS, pH 7): 22.1 ^e %
- Hypochromic effect H/%, polyC-polyG (polyC-polyG): 13.7%
- log Ks, polyC-polyG (polyC-polyG): 6.27
- MIC (P. aeruginosa ATCC 27853): > 256 µg/mL
- MIC (K. pneumonia ATCC 700803): > 256 µg/mL

Compound: CC1CS(=O)(=O)CCN1/N=C/c1ccc([N+](=O)[O-])o1 (centres unmarked) [Nifurtimox, nifurtimox]
- IC50 [9]: 4.4 ± 0.7 µM

Compound: COc1ccc(-n2cc(COc3ccc(-c4nc5cc(C6=NCCN6)ccc5[nH]4)cc3)nn2)cc1.Cl.Cl [Compound 9b, 5–(4,5-Dihydro-1H-imidazol-2-yl)-2–(4-((1–(4-methoxyphenyl)-1H-1,2,3-triazol-4-yl)methoxy)phenyl)-1H-benz[d]imidazole dihydrochloride]
- MIC (E. faecium VRE): 256 µg/mL
- MIC (E. faecalis ATCC 29212): 256 µg/mL
- MIC (S. aureus ATCC 25923): 128 µg/mL
- IC50 [1]: 1.6 ± 0.4 µM
- IC90 [1]: 7.3 ± 0.3 µM
- IC50 [6]: 263 ± 15 µM
- melting point: 197 to 199 °C
- MIC (E. coli ATCC 25925): 256 µg/mL
- ΔTm, polyA-polyU, r = 0.1 (polyA-polyU [7]): 2.49 °C
- ΔTm, polyA-polyU, r = 0.3 (polyA-polyU [7]): 2.67 °C
- ΔTm, polyA-polyU, r = 0.3, second melting midpoint (polyA-polyU [7]): 36.08^c °C
- ΔTm, polyA-polyU, r = 0.5 (polyA-polyU [7]): 2.92 °C
- ΔTm, polyA-polyU, r = 0.5, second melting midpoint (polyA-polyU [7]): 40.93^c °C
- MIC (S. aureus MRSA): 256 µg/mL
- MIC (A. baumannii ATCC 19606): > 256 µg/mL
- MIC (S. aureus MSSA): 256 µg/mL
- log Ks, polyA-polyU (polyA-polyU [4]; PBS, pH 7): 5.46
- Hypochromic effect H/%, polyA-polyU (from experimental data) (polyA-polyU [4]): 31.6 ^e %
- MIC [5]: ≥ 128 µg/mL
- Hypochromic effect H/%, ctDNA (from experimental data) (calf thymus ctDNA; UV–Vis titration, PBS, pH 7): 18.9 ^e %
- MIC (P. aeruginosa ATCC 27853): > 256 µg/mL
- MIC (K. pneumonia ATCC 700803): > 256 µg/mL
